Assay results: the NIST ThermoML archive (doi:10.1021/je0341918)

Experiment: xn = mol fraction of the nth substance listed
Settings: 101.3 kPa, Liquid

OCCCCO [1,4-butanediol] + O
Settings	mass density [kg/m3]	viscosity [mPa·s]
293.15 K, x1 = 0.0218	1001.44	1.792
293.15 K, x1 = 0.0478	1005.97	2.65
293.15 K, x1 = 0.0789	1010.98	3.889
293.15 K, x1 = 0.1175	1015.71	5.788
293.15 K, x1 = 0.1665	1019.86	8.755
293.15 K, x1 = 0.2305	1022.86	11.86
293.15 K, x1 = 0.3179	1024.32	19.07
293.15 K, x1 = 0.4441	1024.18	31.72
293.15 K, x1 = 0.6426	1021.57	56.69
293.15 K, x1 = 0.7917	1019.04	73.61
293.15 K, x1 = 0.8663	1017.74	80.53
293.15 K, x1 = 1	1015.76	90.33
303.15 K, x1 = 0.0218	998.53	1.418
303.15 K, x1 = 0.0478	1002.4	1.957
303.15 K, x1 = 0.0789	1006.62	2.756
303.15 K, x1 = 0.1175	1010.6	3.954
303.15 K, x1 = 0.1665	1014.11	5.775
303.15 K, x1 = 0.2305	1016.62	7.633
303.15 K, x1 = 0.3179	1017.88	12.09
303.15 K, x1 = 0.4441	1017.65	19.66
303.15 K, x1 = 0.6426	1015.15	34.96
303.15 K, x1 = 0.7917	1012.77	45.5
303.15 K, x1 = 0.8663	1011.48	49.82
303.15 K, x1 = 1	1009.54	55.98
313.15 K, x1 = 0.0218	994.86	1.176
313.15 K, x1 = 0.0478	998.21	1.522
313.15 K, x1 = 0.0789	1001.79	2.053
313.15 K, x1 = 0.1175	1005.16	2.835
313.15 K, x1 = 0.1665	1008.13	4.008
313.15 K, x1 = 0.2305	1010.28	5.198
313.15 K, x1 = 0.3179	1011.36	8.018
313.15 K, x1 = 0.4441	1011.09	12.78
313.15 K, x1 = 0.6426	1008.76	22.43
313.15 K, x1 = 0.7917	1006.4	29.65
313.15 K, x1 = 0.8663	1005.15	32.53
313.15 K, x1 = 1	1003.31	35.74
323.15 K, x1 = 0.0218	990.45	0.981
323.15 K, x1 = 0.0478	993.4	1.222
323.15 K, x1 = 0.0789	996.45	1.573
323.15 K, x1 = 0.1175	999.34	2.124
323.15 K, x1 = 0.1665	1001.87	2.909
323.15 K, x1 = 0.2305	1003.72	3.683
323.15 K, x1 = 0.3179	1004.68	5.573
323.15 K, x1 = 0.4441	1004.42	8.706
323.15 K, x1 = 0.6426	1002.32	14.6
323.15 K, x1 = 0.7917	1000	19.29
323.15 K, x1 = 0.8663	998.84	21.11
323.15 K, x1 = 1	997.14	23.63
333.15 K, x1 = 0.0218	985.4	0.871
333.15 K, x1 = 0.0478	987.96	1.042
333.15 K, x1 = 0.0789	990.59	1.281
333.15 K, x1 = 0.1175	993.09	1.652
333.15 K, x1 = 0.1665	995.27	2.191
333.15 K, x1 = 0.2305	996.89	2.705
333.15 K, x1 = 0.3179	997.78	4.017
333.15 K, x1 = 0.4441	997.58	6.143
333.15 K, x1 = 0.6426	995.75	10.12
333.15 K, x1 = 0.7917	993.6	13.04
333.15 K, x1 = 0.8663	992.48	14.29
333.15 K, x1 = 1	990.93	16.17
343.15 K, x1 = 0.0218	979.61	0.783
343.15 K, x1 = 0.0478	981.88	0.905
343.15 K, x1 = 0.0789	984.16	1.081
343.15 K, x1 = 0.1175	986.37	1.338
343.15 K, x1 = 0.1665	988.29	1.719
343.15 K, x1 = 0.2305	989.74	2.055
343.15 K, x1 = 0.3179	990.6	2.991
343.15 K, x1 = 0.4441	990.49	4.471
343.15 K, x1 = 0.6426	988.97	7.211
343.15 K, x1 = 0.7917	987.21	9.223
343.15 K, x1 = 0.8663	986.17	10.11
343.15 K, x1 = 1	984.81	11.45
353.15 K, x1 = 0.0218	973.52	0.723
353.15 K, x1 = 0.0478	975.53	0.809
353.15 K, x1 = 0.0789	977.47	0.94
353.15 K, x1 = 0.1175	979.3	1.108
353.15 K, x1 = 0.1665	981.05	1.381
353.15 K, x1 = 0.2305	982.41	1.804
353.15 K, x1 = 0.3179	983.3	2.283
353.15 K, x1 = 0.4441	983.33	3.358
353.15 K, x1 = 0.6426	982.14	5.276
353.15 K, x1 = 0.7917	980.68	6.743
353.15 K, x1 = 0.8663	979.77	7.321
353.15 K, x1 = 1	978.59	8.28
